# From patent publication US10765114B2, “4-amino-6-(pyridyl and 2-substitutedphenyl)-picolinates and 6-amino-2-(pyridyl and 2-substitutedphenyl)-pyrimidine-4-carboxylates and their use as herbicides” (Dow AgroSciences LLC, priority 2013, dated 2020)
# Read-outs that look alike come from different tables or passages of the source.
# How the values were obtained:
# [1] = tested on: Key Grass and Sedge Weeds as well as Grass Crops; assay: Post-Emergent Test II (Table 6); assay type: in vivo; settings: post-emergence, 336 h, 14 days after application; for pest or weed control at 70 g/ha: 70 g ai/ha; for pest or weed control at 140 g/ha: 140 g ai/ha
# Procedure, shortened: (§1)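 Plants grown in a greenhouse (~15 h photoperiod, 23-29° C day) to first or second true leaf stage were sprayed post-emergence at 187 L/ha with compound in acetone/DMSO-based aqueous spray containing crop oil concentrate and surfactant, applied at a high rate plus ½× to 1/16× serial rates. Injury was scored visually 14 days later, 0-100% versus untreated plants.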
# [2] = tested on: Key Broadleaf Weed and Crop Species; assay: Post-Emergent Test II (Table 5); assay type: in vivo; settings: post-emergence, 336 h; for pest or weed control at 70 g/ha: application rate 70 (kg ai/ha; footnote: g ai/ha); for pest or weed control at 140 g/ha: application rate 140 (kg ai/ha; footnote: g ai/ha)
# Procedure, shortened: as §1
# [3] = CYPSS, read-out: Visual Growth Reduction (%) 14 Days After Application CYPSS
# [4] = DIGSA: crabgrass (Digitaria sanguinalis), read-out: Visual Growth Reduction (%) 14 Days After Application DIGSA
# [5] = ECHSS, read-out: Visual Growth Reduction (%) 14 Days After Application ECHSS
# [6] = ORYSS (crop), read-out: Visual Growth Reduction (%) 14 Days After Application ORYSS
# [7] = SETFA: giant foxtail (Setaria faberi), read-out: Visual Growth Reduction (%) 14 Days After Application SETFA
# [8] = SORVU: grain sorghum (Sorghum vulgare), read-out: Visual Growth Reduction (%) 14 Days After Application SORVU
# [9] = TRZSS (crop), read-out: Visual Growth Reduction (%) 14 Days After Application TRZSS
# [10] = ZEAMX: maize, corn (Zea mays), read-out: Visual Growth Reduction (%) 14 Days After Application ZEAMX
# [11] = Abutilon theophrasti, ABUTH: velvetleaf (Abutilon theophrasti), read-out: Visual Growth Reduction (%) 14 Days After Application ABUTH
# [12] = Amaranthus retroflexus, AMARE: redroot pigweed (Amaranthus retroflexus), read-out: Visual Growth Reduction (%) 14 Days After Application AMARE
# [13] = Brassica napus, BRSSS: oilseed rape, canola (Brassica napus), read-out: Visual Growth Reduction (%) 14 Days After Application BRSSS
# [14] = Chenopodium album, CHEAL: lambsquarters (Chenopodium album), read-out: Visual Growth Reduction (%) 14 Days After Application CHEAL
# [15] = Euphorbia heterophylla, EPHHL: wild poinsettia (Euphorbia heterophylla), read-out: Visual Growth Reduction (%) 14 Days After Application EPHHL
# [16] = Helianthus annuus, HELAN: sunflower (Helianthus annuus), read-out: Visual Growth Reduction (%) 14 Days After Application HELAN
# [17] = Viola tricolor, VIOTR: wild pansy (Viola tricolor), read-out: Visual Growth Reduction (%) 14 Days After Application VIOTR
Compound,"pest or weed control at 70 g/ha [1, 3] [%]","pest or weed control at 140 g/ha [1, 3] [%]","pest or weed control at 70 g/ha [1, 4] [%]","pest or weed control at 140 g/ha [1, 4] [%]","pest or weed control at 70 g/ha [1, 5] [%]","pest or weed control at 140 g/ha [1, 5] [%]","pest or weed control at 70 g/ha [1, 6] [%]","pest or weed control at 140 g/ha [1, 6] [%]","pest or weed control at 70 g/ha [1, 7] [%]","pest or weed control at 140 g/ha [1, 7] [%]","pest or weed control at 70 g/ha [1, 8] [%]","pest or weed control at 140 g/ha [1, 8] [%]","pest or weed control at 70 g/ha [1, 9] [%]","pest or weed control at 140 g/ha [1, 9] [%]","pest or weed control at 70 g/ha [1, 10] [%]","pest or weed control at 140 g/ha [1, 10] [%]","pest or weed control at 70 g/ha [2, 11] [%]","pest or weed control at 140 g/ha [2, 11] [%]","pest or weed control at 70 g/ha [2, 12] [%]","pest or weed control at 140 g/ha [2, 12] [%]",further results
"Nc1c(F)c(-c2ccc(Br)nc2)nc(C(=O)O)c1Cl [Compound 8, 4-amino-6′-bromo-5-chloro-3-fluoro-[2,3′-bipyridine]-6-carboxylic acid]",95 to 100,95 to 100,85 to 94,95 to 100,85 to 94,95 to 100,60 to 74,75 to 84,85 to 94,85 to 94,85 to 94,95 to 100,85 to 94,95 to 100,85 to 94,95 to 100,85 to 94,95 to 100,95 to 100,95 to 100,"pest or weed control at 70 g/ha [2, 13]: 95 to 100%; pest or weed control at 140 g/ha [2, 13]: 95 to 100%; pest or weed control at 70 g/ha [2, 14]: 95 to 100%; pest or weed control at 140 g/ha [2, 14]: 95 to 100%; pest or weed control at 70 g/ha [2, 15]: 75 to 84%; pest or weed control at 140 g/ha [2, 15]: 95 to 100%; pest or weed control at 70 g/ha [2, 16]: 95 to 100%; pest or weed control at 140 g/ha [2, 16]: 95 to 100%; pest or weed control at 70 g/ha [2, 17]: 95 to 100%; pest or weed control at 140 g/ha [2, 17]: 95 to 100%"
"COC(=O)c1nc(-c2ccc(Cl)c(F)c2OC)c(F)c(N)c1Cl [Compound 39, methyl 4-amino-3-chloro-6-(4-chloro-3-fluoro-2-methoxyphenyl)-5-fluoropicolinate]",45 to 59,95 to 100,0 to 29,0 to 29,0 to 29,0 to 29,0 to 29,0 to 29,0 to 29,75 to 84,0 to 29,0 to 29,30 to 44,30 to 44,0 to 29,60 to 74,95 to 100,95 to 100,95 to 100,95 to 100,"pest or weed control at 70 g/ha [2, 13]: 95 to 100%; pest or weed control at 140 g/ha [2, 13]: 95 to 100%; pest or weed control at 70 g/ha [2, 14]: 0 to 29%; pest or weed control at 140 g/ha [2, 14]: 0 to 29%; pest or weed control at 70 g/ha [2, 15]: 45 to 59%; pest or weed control at 140 g/ha [2, 15]: 45 to 59%; pest or weed control at 70 g/ha [2, 16]: 95 to 100%; pest or weed control at 140 g/ha [2, 16]: 95 to 100%; pest or weed control at 70 g/ha [2, 17]: 95 to 100%; pest or weed control at 140 g/ha [2, 17]: 95 to 100%"
"COC(=O)c1nc(-c2ccc(Cl)c(OC)c2C(F)F)cc(N)c1Cl [Compound 60, methyl 4-amino-3-chloro-6-(4-chloro-2-(difluoromethyl)-3-methoxyphenyl)picolinate]",30 to 44,30 to 44,0 to 29,30 to 44,0 to 29,30 to 44,0 to 29,0 to 29,0 to 29,0 to 29,0 to 29,45 to 59,0 to 29,0 to 29,0 to 29,0 to 29,95 to 100,95 to 100,95 to 100,95 to 100,"pest or weed control at 70 g/ha [2, 13]: 60 to 74%; pest or weed control at 140 g/ha [2, 13]: 75 to 84%; pest or weed control at 70 g/ha [2, 14]: 95 to 100%; pest or weed control at 140 g/ha [2, 14]: 95 to 100%; pest or weed control at 70 g/ha [2, 15]: 60 to 74%; pest or weed control at 140 g/ha [2, 15]: 60 to 74%; pest or weed control at 70 g/ha [2, 16]: 85 to 94%; pest or weed control at 140 g/ha [2, 16]: 85 to 94%; pest or weed control at 70 g/ha [2, 17]: 30 to 44%; pest or weed control at 140 g/ha [2, 17]: 30 to 44%"
Cc1c(-c2nc(C(=O)O)c(Cl)c(N)c2F)ccc(Cl)c1F [Compound 67],0 to 29,0 to 29,0 to 29,0 to 29,0 to 29,0 to 29,0 to 29,0 to 29,0 to 29,0 to 29,0 to 29,0 to 29,0 to 29,0 to 29,0 to 29,0 to 29,85 to 94,85 to 94,95 to 100,95 to 100,"pest or weed control at 70 g/ha [2, 13]: 95 to 100%; pest or weed control at 140 g/ha [2, 13]: 95 to 100%; pest or weed control at 70 g/ha [2, 14]: 95 to 100%; pest or weed control at 140 g/ha [2, 14]: 95 to 100%; pest or weed control at 70 g/ha [2, 15]: 0 to 29%; pest or weed control at 140 g/ha [2, 15]: 0 to 29%; pest or weed control at 70 g/ha [2, 16]: 95 to 100%; pest or weed control at 140 g/ha [2, 16]: 95 to 100%; pest or weed control at 70 g/ha [2, 17]: 0 to 29%; pest or weed control at 140 g/ha [2, 17]: 0 to 29%"
